Here are results for five compounds from US10730826B2, “Ketone inhibitors of lysine gingipain” (CORTEXYME, INC., priority 2016, dated 2020).

For series [1], the target named is Kgp in P. gingivalis W83 bacteria (Porphyromonas gingivalis (Bacteroides gingivalis), UniProt Q51817). The series can be described thus: Bacterial smear staining with gingipain activity probes. The following applies: 1 μM probe, 1 hr, 37° C.; no signal in Kgp knockout. It is filed as cell-based. The protocol: Bacteria were then pelleted and resuspended in 20 μl of PBS, which was dropped onto a poly-L-lysine coated slide and kept in a dark box at room temperature for about 2 hrs in order for the droplet to dry. The slide was then washed 3 times in PBS. Slides were mounted with a mounting media containing DAPI stain for bacterial DNA and visualized under fluorescence microscopy.

Series [2] deals with T1, Kgp (Porphyromonas gingivalis (Bacteroides gingivalis), UniProt Q51817). The series can be described thus: Activity probe labelling of Kgp in P. gingivalis-infected Jurkat cells (SDS-PAGE). It is filed as cell-based. An excerpt:
The identity of this labeled protein in P. gingivalis-infected cells was confirmed to be Kgp by Western blot.

The target in series [3] is T2, Kgp (Porphyromonas gingivalis (strain ATCC 33277 / DSM 20709 / CIP 103683 / JCM 12257 / NCTC 11834 / 2561), UniProt B2RLK2). The series can be described thus: Gingival tissue staining with activity probe. Details: species or system human. The settings on record: patient with periodontal disease, FIG. 5B. Here is the method:
Slides of fresh frozen gingival tissue (5 micron thickness) were removed from a −80° C. freezer and thawed at RT for 10 min. […] Slides were then washed three times in PBS, 5 min each, then fixed in fresh 4% PFA for 15 min at RT, then washed again three times in PBS. Then slides were incubated with a 1× working Trueblack solution (Biotium) for 30 min at RT. Slides were then washed three times in PBS and mounted with anti-fade mounting media containing DAPI (FIG. 5B).

Series [4] concerns the target T2, Kgp. The series can be described thus: Buccal cell staining with activity probe. It is filed as cell-based, human. The settings on record: 1 μM probe, 1 hr, 37° C., FIG. 7. Here is the method:
Cells were incubated for 1 hr at 37° C. and pelleted. Cells were resuspended in 20 μL of PBS and placed on poly-L-lysine coated slides, washed, and dried. Slides were mounted with antifade mounting media containing DAPI and visualized under a fluorescence microscope.

The target of another series is Cathepsin B (Homo sapiens (Human), UniProt P07858). The series can be described thus: Cathepsin B inhibition assay. The settings on record: read-out: IC50 (nM) CatB. It is filed as biochemical. Here is the method: (§1) The capacities of compounds of the present invention to inhibit the activity of cathepsins B, H, K, L, and S were measured in similar assays. Boc-Leu-Arg-Arg-AMC (20 μM) in sodium acetate buffer (50 mM, pH 5.5) containing DTT (1 mM) and EDTA (2 mM) was used for the Cathepsin B assay. L-Arg-AMC (20 μM) in sodium acetate buffer (50 mM, pH 5.5) containing DTT (1 mM) and EDTA (2 mM) was used for the Cathepsin H assay. Z-Phe-Arg-AMC (10 μM) in HEPES buffer (50 mM, pH 7.4) containing DTT (2.5 mM) and EDTA (1 mM) was used for the Cathepsin K assay. Z-Phe-Arg-AMC (20 μM) in sodium acetate buffer (50 mM, pH 5.5) containing DTT (1 mM) and EDTA (2 mM) was used for the Cathepsin L assay. Z-Leu-Arg-AMC (10 μM) in sodium acetate buffer (25 mM, pH 4.5) containing DTT (2.5 mM) and NaCl (50 mM) was used for the Cathepsin S assay. The capacities of the compounds to inhibit the activity of cathepsins F, V, and Z were also measured.
(§2) Further assays to measure the inhibitory activity of compounds of the present invention against Kgp and cathepsins B, H, K, L, and S were conducted as described in Example 66. The capacities of the compounds to inhibit the activity of cathepsins F, V, and Z were also measured.

The target in a further series is Cathepsin S (Homo sapiens (Human), UniProt P25774). Put plainly: Cathepsin S inhibition assay. The format is biochemical. The following applies: read-out: IC50 (nM) CatS. Here is the method:
as §1, §2

A further series has as its target Cathepsin K (Homo sapiens (Human), UniProt P43235). The series can be described thus: Cathepsin K inhibition assay. It is filed as biochemical. The following applies: read-out: IC50 (nM) CatK. The protocol:
as §1, §2

Another series deals with Cathepsin L (Homo sapiens (Human), UniProt P07711). Put plainly: Cathepsin L inhibition assay. The following applies: read-out: IC50 (nM) CatL. It is filed as biochemical. The protocol: as §1, §2
A further series concerns the target Cathepsin H (Homo sapiens (Human), UniProt P09668). The series can be described thus: Cathepsin H inhibition assay. The settings on record: read-out: IC50 (nM) CatH. The format is biochemical. Here is the method: as §1, §2
Another series has as its target cathepsin F (Homo sapiens (Human), UniProt Q9UBX1). The series can be described thus: Cathepsin F inhibition assay. It is filed as biochemical. The following applies: Table 4; read-out: IC50 (nM) CatF. The protocol: as §1, §2
For a further series, the target named is cathepsin V (Homo sapiens (Human), UniProt O60911). The series can be described thus: Cathepsin V inhibition assay. The following applies: Table 4; read-out: IC50 (nM) CatV. The format is biochemical. Here is the method: as §1, §2
A further series has as its target cathepsin Z (Homo sapiens (Human), UniProt Q9UBR2). The series can be described thus: Cathepsin Z inhibition assay. The format is biochemical. The following applies: Table 4; read-out: IC50 (nM) CatZ. The protocol:
as §1, §2

The conditions of series [5]: in vivo, po; cited from earlier work.
The target in series [6] is T1, Kgp. The series can be described thus: Biotin activity probe pull-down of Kgp from P. gingivalis lysate. It is filed as binding. The settings on record: streptavidin beads, Western blot with CAB102, FIG. 8. Here is the method:
P. gingivalis W83 was lysed with B-Per buffer for 15 min at 4° C. […] 5 mg of streptavidin-beads were incubated with all samples for 1 hr at room temperature on an inverting platform. The beads were collected after 1 hr and heated at 100° C. for 5 min with 0.1% SDS to disrupt biotin-streptavidin binding. The resulting supernatants were analyzed by SDS-PAGE and Western blotting for specific detection of Kgp with CAB102 (FIG. 8).
Background: In western blotting, separated proteins are transferred to a membrane and probed.

Broadly, the IC50 is the concentration at which inhibition is half-maximal.

Each structure is given as a SMILES string. Read-outs that look alike come from different tables or passages of the source. A value given as a limit tells only on which side of the number the result lay.

Regarding `CC1=CC(C)=[N+]2C1=Cc1ccc(CCC(=O)NCc3cn(-c4cccc(C(=O)NC(CCCCN)C(=O)COc5c(F)cccc5F)c4)nn3)n1[B-]2(F)F` (centres unmarked) [Compound 15a], the “fluorescence of W83 bacteria after exposure to probe” value in [1] is given as “fluorescent”. Besides, the “binding of probe to Kgp” value at Kgp [2] (purified Kgp and infected Jurkat cells, FIG. 6A) is “irreversibly binds to purified Kgp”. At Kgp [3], the “fluorescence signal in gingival tissue section” value is “yields a fluorescence signal”. Moreover, on Kgp [4], the “staining of buccal cells” value is given as “pronounced, punctate staining”.

`C[N+]1=C(/C=C/C=C/C=C2\N(CCCCCC(=O)NCc3cn(-c4cccc(C(=O)N[C@@H](CCCCN)C(=O)COc5c(F)cccc5F)c4)nn3)c3ccc(S(=O)(=O)O)cc3C2(C)C)C(C)(C)c2cc(S(=O)(=O)O)ccc21` [Compound 70]: the “blocking of probe 15a binding to Kgp by preincubation” value on Kgp [2] (infected Jurkat cells, preincubation before probe 15a) is reported as “blocked the binding of the probe 15a to Kgp”.

For `NCCCC[C@H](NC(=O)C1CCCC1)C(=O)COc1c(F)c(F)cc(F)c1F` (stereo in doubt) [Compound 73, N-[7-amino-2-oxo-1-(2,3,5,6-tetrafluorophenoxy)heptan-3-yl]cyclopentanecarboxamide, reference compound], the IC50 at Cathepsin B (Table 3) is 485 nM; on Cathepsin B (Table 4), 485 nM; on Cathepsin S (Table 3), 9980 nM; at Cathepsin S (Table 4), greater than 10000 nM; on Cathepsin K (Table 3), 20 nM; on Cathepsin K (Table 4), 20 nM. Further, the IC50 on Cathepsin L (Table 3) came to 700 nM; on Cathepsin L (Table 4) it was 700 nM; on Cathepsin H (Table 3) it was 110 nM; at Cathepsin H (Table 4), 110 nM; on cathepsin F, 500 nM; on cathepsin V it was 5720 nM. Moreover, on cathepsin Z, the IC50 was greater than 10000 nM.

On to `CN(NC(=O)CC[C@H](NC(=O)OCc1ccccc1)C(=O)N[C@@H](CCCCN)C(=O)C(=O)NCc1ccccc1)c1ccccc1` [Kyt-36], for which, in series [5], the half-life entry is “increases the half-life”.

Regarding `NCCCCC(NC(=O)c1cccc(-n2cc(CNC(=O)CCCC[C@@H]3SC[C@@H]4NC(=O)N[C@@H]43)nn2)c1)C(=O)COc1c(F)cccc1F` (some centres unmarked) [Compound 51a], the “amount of P. gingivalis from which Kgp was pulled down and detected” value on Kgp [6] was “at least 10^6 CFU”.
